Inhibition in vivo data for 37 compounds are collected here from patent US9302996B2, “Continuous arycyclic compound” (MITSUBISHI TANABE PHARMA CORPORATION, priority 2010, dated 2016).

In assay [1] the test system is ICR mice. Nature of the assay: Triglyceride (TG) in blood plasma increase-inhibiting action due to lipid administration. Type of assay: in vivo. The conditions noted are these: Mus musculus; male ICR mice, 5 mg/kg oral, lipid (Intralipos 20%) after 30 minutes, plasma TG 2 hours after lipid; read-out: Inhibiting rate of TG-increase in blood plasma (5 mg/kg). The method, then:
6 to 9 weeks-old male ICR mice were fasted overnight, and Test compound suspended in 0.2% carboxymethyl cellulose solution was orally administered to the mice. A lipid (Intralipos 20%, OTSUKA PHARMACEUTICAL CO., LTD., 10 mL/kg) was orally administered after 30 minutes. Blood was collected from tail vein immediately before the lipid administration, and after 2 hours from the same to obtain blood plasma. Measurement of TG in blood plasma was carried out by using a triglyceride E Test Wako (Wako Pure Chemical Industries, Ltd.), and an increased value of TG in blood plasma by administration of the lipid was calculated. An increased value of TG in blood plasma in a solvent control group was used as a control, and an inhibiting rate in increase of TG in blood plasma in the Test compound administered group was calculated.

Assay [2] deals with C57BL/6J mice. Put plainly: Antifeeding activity (high fat diet intake up to 4 hours). Type of assay: in vivo. The conditions noted are these: Mus musculus, male C57BL/6J mice, 5 mg/kg oral, food ingested up to 4 hours, read-out: Antifeeding rate (5 mg/kg). On the procedure: 7 to 10 weeks-old male C57BL/6J mice were fasted overnight, and the test compound suspended in 0.2% carboxymethylcellulose solution was orally administered. Immediately after the administration, high fat diet (Oriental Yeast Co., Ltd, 60 cal % fat) was provided and freely fed. An amount of food ingested up to 4 hours was measured, and a lowering rate (an antifeeding rate) of the amount of food ingested in the Test compound administered group was calculated as compared to that of the solvent control group as a control.

`CCC(CC)(COc1ccc(-c2ccc(-c3ncc(C(F)(F)F)[nH]3)cn2)cc1)C(=O)O` [Example 19-3), 2-ethyl-2-[[4-[5-[4-(trifluoromethyl)-1H-imidazol-2-yl]-2-pyridyl]phenoxy]methyl]butanoic acid]: the inhibition in vivo at 5 mg/kg in assay [1] came out at 89%; in assay [2], 78%.

For `Cc1cc(OCC(C)(C)C(=O)O)ncc1-c1ccc(-c2ncc(CC3CC3)[nH]2)c(C)c1` [Example 109], the inhibition in vivo at 5 mg/kg was determined as 50% in assay [1] and 41% in assay [2].

Regarding `CC(C)(COc1ccc(-c2ccc(-c3ncc(CC4CC4)[nH]3)cn2)cc1)C(=O)O` [Example 27], the figures for the inhibition in vivo at 5 mg/kg in assay [1] and in assay [2] were 69% and 66%, respectively.

As for `CC(C)c1cnc(-c2ccc(-c3ccc(OCC(C)(C)C(=O)O)cc3)nc2)[nH]1` [Example 28], the inhibition in vivo at 5 mg/kg in assay [1] turned out to be 59%; in assay [2], 54%.

On to `CC(C)(COc1ncc(-c2ccc(-c3ncc(C(C)(C)C(F)(F)F)[nH]3)cc2)cc1F)C(=O)O` [Example 143], for which the inhibition in vivo at 5 mg/kg in assay [1] came to 55%; in assay [2], 4%.

With `CCC(CC)(COc1cc(C)c(-c2ccc(-c3ncc(C(F)(F)F)[nH]3)c(Cl)c2)cn1)C(=O)O` [Example 140], the values for the inhibition in vivo at 5 mg/kg in assay [1] and in assay [2] were 68% and 78%, respectively.

As for `CC(C)(COc1ccc(-c2ccc(-c3ncc(CCC4CC4)[nH]3)cn2)cc1)C(=O)O` [Example 30], the inhibition in vivo at 5 mg/kg in assay [1] was 60%; in assay [2], 68%.

Turning to `CCC(CC)(COc1cc(C)c(-c2ccc(-c3ncc(C(F)(F)F)[nH]3)c(F)c2)cn1)C(=O)O` [Example 134], the inhibition in vivo at 5 mg/kg in assay [1] is 84%; in assay [2] it was 74%.

As for `CC(C)(COc1ccc(-c2ccc(-c3ncc(C(F)(F)F)[nH]3)cn2)cc1)CC(=O)O` [Example 65], the inhibition in vivo at 5 mg/kg is 75% in assay [1] and 79% in assay [2].

With `CCC(CC)c1cnc(-c2ccc(-c3ccc(OCC(C)(C)C(=O)O)cc3)nc2)[nH]1` [Example 29], the inhibition in vivo at 5 mg/kg was 52% in assay [1] and 28% in assay [2].

`Cc1cc(OCC(C)(C)C(=O)O)ncc1-c1ccc(-c2ncc(CC3CC3)[nH]2)cc1` [Example 108]: the inhibition in vivo at 5 mg/kg in assay [1] amounted to 52%; in assay [2], 62%.

Regarding `CC(C)(COc1ccc(-c2ccc(-c3ncc(C4CCCCC4)[nH]3)cn2)cc1)C(=O)O` [Example 56], the results for the inhibition in vivo at 5 mg/kg in assay [1] and in assay [2] were 61% and 76%, respectively.

Regarding `Cc1cc(OCC(C)(C)C(=O)O)ncc1-c1ccc(-c2ncc(C(C)(C)C(F)(F)F)[nH]2)c(F)c1` [Example 115], the inhibition in vivo at 5 mg/kg in assay [1] is 50%; in assay [2], 62%.

As for `Cc1cc(-c2ccc(OCC(C)(C)C(=O)O)cc2)ncc1-c1ncc(C2(C(F)(F)F)CC2)[nH]1` [Example 35-3), 2,2-dimethyl-3-[4-(4-methyl-5-{5-[1-(trifluoromethyl)cyclopropyl]-1H-imidazol-2-yl}pyridin-2-yl)phenoxy]-propanoic acid], the values for the inhibition in vivo at 5 mg/kg in assay [1] and in assay [2] were 54% and 56%, respectively.

On to `CC(C)(COc1ccc(-c2ccc(-c3nc(C(F)(F)F)c[nH]3)cc2)cc1)C(=O)O` [Example 93-3), 3-({4′-[5-(trifluoromethyl)-1H-imidazol-2-yl]biphenyl-4-yl}oxy)-2,2-dimethylpropanoic acid], for which the inhibition in vivo at 5 mg/kg is 67% in assay [1] and 68% in assay [2].

For the compound `Cc1cc(OCC(C)(C)C(=O)O)ncc1-c1ccc(-c2ncc(C(C)(C)C(F)(F)F)[nH]2)nc1` [Example 47], the inhibition in vivo at 5 mg/kg in assay [1] is 72%; in assay [2], 44%.

On to `O=C(O)C1(COc2ccc(-c3ccc(-c4ncc(C(F)(F)F)[nH]4)cn3)cc2)CCCC1` [Example 20], for which the results for the inhibition in vivo at 5 mg/kg in assay [1] and in assay [2] were 74% and 70%, respectively.

On to `Cc1cc(OCC(C)(C)C(=O)O)ncc1-c1ccc(-c2ncc(C(F)(F)C(F)(F)F)[nH]2)nc1` [Example 116], for which the inhibition in vivo at 5 mg/kg in assay [1] turned out to be 82%; in assay [2], 76%.

In the case of `COc1cc(OCC(C)(C)C(=O)O)ccc1-c1ccc(-c2ncc(C(F)(F)F)[nH]2)cn1` [Example 86-3), 3-[3-methoxy-4-[5-[5-(trifluoromethyl)-1H-imidazol-2-yl]-2-pyridyl]phenoxy]-2,2-dimethylpropanoic acid], the results for the inhibition in vivo at 5 mg/kg in assay [1] and in assay [2] were 68% and 21%, respectively.

`Cc1cc(-c2ccc(-c3ncc(C(F)(F)F)[nH]3)cn2)ccc1OCC(C)(C)C(=O)O` [Example 8-2), 2,2-dimethyl-3-[2-methyl-4-[5-[5-(trifluoromethyl)-1H-imidazol-2-yl]-2-pyridyl]phenoxy]propanoic acid]: the figures for the inhibition in vivo at 5 mg/kg in assay [1] and in assay [2] were 46% and 57%, respectively.

In the case of `Cc1cc(OCC(C)(C)C(=O)O)ncc1-c1ccc(-c2ncc(CC3CC3)[nH]2)nc1` [Example 118], the inhibition in vivo at 5 mg/kg worked out at 64% in assay [1] and 61% in assay [2].

For `CCc1cc(OCC(C)(C)C(=O)O)ccc1-c1ccc(-c2ncc(C(F)(F)F)[nH]2)cn1` [Example 85-4), 3-(3-ethyl-4-{5-[5-(trifluoromethyl)-1H-imidazol-2-yl]pyridin-2-yl}phenoxy)-2,2-dimethylpropanoic acid], the values for the inhibition in vivo at 5 mg/kg in assay [1] and in assay [2] were 69% and 70%, respectively.

As for `Cc1cc(OCC2(C(=O)O)CC2)ccc1-c1ccc(-c2ncc(C(F)(F)F)[nH]2)cn1` [Example 71], the inhibition in vivo at 5 mg/kg in assay [1] was found to be 50%; in assay [2] it was 29%.

Turning to `CC(C)(COc1ccc(-c2ccc(-c3ncc(C(F)(F)F)[nH]3)nc2)cc1)C(=O)O` [Example 68], the inhibition in vivo at 5 mg/kg came to 64% in assay [1] and 63% in assay [2].

As to `O=C(O)C1(COc2ccc(-c3ccc(-c4ncc(C(F)(F)F)[nH]4)nc3)cn2)CCCC1` [Example 16], the values for the inhibition in vivo at 5 mg/kg in assay [1] and in assay [2] were 74% and 75%, respectively.

In the case of `Cc1cc(OCC(C)(C)C(=O)O)ncc1-c1ccc(-c2ncc(C(F)(F)C(F)(F)F)[nH]2)c(F)c1` [Example 124], the inhibition in vivo at 5 mg/kg in assay [1] was 98%; in assay [2], 75%.

Regarding `Cc1nc(OCC(C)(C)C(=O)O)ccc1-c1ccc(-c2ncc(C(F)(F)F)[nH]2)cn1` [Example 10], the inhibition in vivo at 5 mg/kg in assay [1] and in assay [2] was 62% throughout.

For the compound `Cc1cc(OCC2(C(=O)O)CC2)ncc1-c1ccc(-c2ncc(C(F)(F)F)[nH]2)c(F)c1` [Example 133], the inhibition in vivo at 5 mg/kg was found to be 75% in assay [1] and 83% in assay [2].

Turning to `CC(C)(COc1ccc(-c2ccc(-c3ncc(C(F)(F)F)[nH]3)cn2)c(F)c1)C(=O)O` [Example 64], the inhibition in vivo at 5 mg/kg in assay [1] is 60%; in assay [2], 78%.

`CC(C)(COc1ncc(-c2ccc(-c3ncc(C(F)(F)F)[nH]3)c(Cl)c2)cc1F)C(=O)O` [Example 82]: the inhibition in vivo at 5 mg/kg in assay [1] was 47%; in assay [2], 42%.

As to `Cc1cc(OCC2(C(=O)O)CCC2)ncc1-c1cnc(-c2ncc(C(F)(F)F)[nH]2)c(Cl)c1` [Example 99-6), 1-[({5′-chloro-4-methyl-6′-[5-(trifluoromethyl)-1H-imidazol-2-yl]-3,3′-bipyridin-6-yl}oxy)methyl]cyclobutanecarboxylic acid], the inhibition in vivo at 5 mg/kg stood at 95% in assay [1] and 85% in assay [2].

As for `CCCc1cnc(-c2ccc(-c3ccc(OCC(C)(C)C(=O)O)cc3)nc2)[nH]1` [Example 32], the values for the inhibition in vivo at 5 mg/kg in assay [1] and in assay [2] were 71% and 42%, respectively.

Take `CC(C)(COc1ccc(-c2ccc(-c3ncc(CC(F)F)[nH]3)cn2)cc1)C(=O)O` [Example 12]: the inhibition in vivo at 5 mg/kg worked out at 51% in assay [1] and 40% in assay [2].

With `CC(C)(COc1ccc(-c2ccc(-c3ncc(C4(C(F)(F)F)CCC4)[nH]3)cn2)cc1)C(=O)O` [Example 88-3), sodium 2,2-dimethyl-3-[4-(5-{5-[1-(trifluoromethyl)cyclobutyl]-1H-imidazol-2-yl}pyridin-2-yl)phenoxy)propanoate], the inhibition in vivo at 5 mg/kg in assay [1] worked out at 65%; in assay [2], 55%.

For the compound `CC(C)(COc1cnc(-c2ccc(-c3ncc(C(F)(F)F)[nH]3)c(F)c2)cn1)C(=O)O` [Example 91], the inhibition in vivo at 5 mg/kg in assay [1] and in assay [2] was 51% throughout.

On to `CC(C)(CCOc1ccc(-c2ccc(-c3ncc(C(F)(F)F)[nH]3)cn2)cc1)C(=O)O` [Example 18-2), 2,2-dimethyl-4-[4-[5-[5-(trifluoromethyl)-1H-imidazol-2-yl]-2-pyridin]phenoxy]butanoic acid], for which the results for the inhibition in vivo at 5 mg/kg in assay [1] and in assay [2] were 69% and 83%, respectively.

For the compound `O=C(O)C1(COc2ccc(-c3ccc(-c4ncc(C(F)(F)F)[nH]4)cn3)cn2)CCCC1` [Example 17], the inhibition in vivo at 5 mg/kg came to 69% in assay [1] and 82% in assay [2].
